This experiment concerns Serotonin Reuptake. Put plainly: in vitro inhibition of serotonin uptake ([3H]-5HT uptake into whole rat brain synaptosomes). It counts as biochemical, rat (Male CR Wistar rats). The note with it: rat whole brain (minus cerebellum) synaptosomes; 50 nM [3H]-5HT; 5 minutes at 37° C.; pH 7.4; log probit analysis. As for the experimental part:
See, for example, W. K. Goodman, et al., Archives of General Psychiatry, 47, 577 (1990). […] In this assay, a modification of the tests described by A. S. Horn and R. C. A. M. Trace, British Journal of Pharmacology, 51, 399 (1974), A. Nagy and A. V. Delgado-Escueta, Journal of Neurochemistry, 43, 1114 (1984) and P. R. Dunkley, et al., Brain Research, 372, 115 (1986), the following reagents are prepared and employed:
Male CR Wistar rats (100-125 g)
3. Sucrose solution: 0.32M sucrose containing 5 mM HEPES and 0.1 mM EDTA; pH to 7.3 using Tris base.
4. A 0.1 mM stock solution of serotonin creatinine SO4 is made up in 0.01N HCl. This is used to dilute the specific activity of radiolabeled 5HT.
5. 5-[1,2-^3 H(N)]-Hydroxytryptamine creatinine sulfate (serotonin), specific activity 20-30 Ci/mmol, is used. The final desired concentration of [^3 H]-5HT in the assay is 50 nM. The dilution factor is 0.8. The KHBB is made up to contain 62.5 nM of [^3 H]-5HT.
6. For most assays, a 0.5 mM stock solution of the test compound is made up initially in either 10 μl of glacial acetic acid, 100 μl DMSO or 10 μl of the recrystallization solvent, to which is added approximately 10 ml of distilled water. Compounds are initially screened in duplicate at 3 concentrations (10^-8, 10^-7 and 10^-6 M) made up in water. […] To ensure consistency, the standard clomipramine is run with each assay.
Male Wistar rats are decapitated and the brain rapidly removed. Whole brain (minus cerebellum) is weighed and homogenized in 15 volumes of ice cold sucrose solution using a Potter-Elvejhem homogenizer. The following procedures are performed on ice. Homogenization should be done with 4-5 up and down strokes at medium speeds (setting 4.5 to 5) to minimize synaptosome lysis. The homogenate is centrifuged at 1000 g (3000 rpm, Sorvall SS-34 rotor) for 10 minutes at 0°-4° C. The supernatant is removed and approximately 10 ml per tube is carefully layered onto a discontinuous Percoll (Sigma cat# P-1644) gradient: 21% Percoll in sucrose solution at the bottom (15 ml per tube) and 10% Percoll in the middle (10 ml; colored with a few drops of phenol red for visibility).
The Percoil gradient tubes are carefully placed into a Beckman SW-28 swinging bucket rotor and spun in a Beckman XL90 ultracentrifuge using the following program: speed, 11,000 rpm (15,000 g) for 30 minutes at 4° C.; slow acceleration and deceleration (acceleration setting 9; deceleration setting 3). Tubes are carefully removed, and the top layer and the top part of the middle (red) layers are discarded using a pasteur pipette. The synaptosomes are located in the white fluffy band at the interface between the 10% and 21% Percoll layers. This is carefully removed, placed in a centrifuge tube, diluted with KHBB and spun at 21,000 g (13,000 rpm, Sorvall SS-34 rotor). The pellet (synaptosomes) is resuspended in KHBB (10 vol per gram original brain wet weight; 1 brain minus cerebellum weighs approximately 1.2 g; 2.5 brains are needed per typical assay).
20 μl Vehicle or appropriate drug
200 μl of the tissue suspension are added to each of 24 tubes (at a time) containing the 20 μl of vehicle or drug on ice. Three minutes later, 800 μl of KHBB containing [^3 H]-5HT are added, and tubes are vortexed. The rack containing the 24 tubes is moved from the ice bath to a water bath set at 37° C. The tubes are incubated for 5 minutes under 95% oxygen/5% carbon dioxide. Uptake is terminated by filtration through GF/B filter strips using a Brandel cell harvester (filter strips are presoaked in ice cold filtration buffer). Tubes are washed once with 5 ml of ice cold filtration buffer. Filter disks are placed in scintillation vials to which are added 10 ml of scintillation fluid (EcoScint). Filters are allowed to sit overnight before being counted.
For each assay, 3 tubes are incubated with 20 μl of vehicle at both 37° C. and 0° C.

Structures can show the parent of a compound that is named as a salt.

The IC50 is the midpoint of a concentration-inhibition curve. High values mean lower potency, low ones higher potency.

The molecule `COc1ccc(C(CCn2ccnc2)=NOCCN)cc1` [4'-Methoxy-3-(1-(1H)-imidazolyl)propiophenone O-(2-aminoethyl)oxime difumarate hydrate] came in with an IC50 of 1280 nM. `NCCON=C(CCCn1ccnc1)c1ccc(F)cc1` [1-(4-Fluorophenyl)-4-(1-(1H)-imidazolyl)-1-butanone O-(2-aminoethyl)oxime dihydrochloride] came in with an IC50 of 257 nM. The value for `NCCON=C(CCCn1ccnc1)c1ccccc1` [4-(1-(1H)-Imidazolyl)-1-phenyl-1-butanone O-(2-aminoethyl)oxime dihydrochloride] was 1810 nM; that for `NCCON=C(CCn1ccnc1)c1ccc(C(F)(F)F)cc1` [3-(1-(1H)-Imidazolyl)-1-(4-trifluoromethylphenyl)-1-propanone O-(2-aminoethyl)oxime dihydrochloride] was 164 nM; that for `NCCON=C(CCn1ccnc1)c1ccc(Cl)cc1` [4'-Chloro-3-(1-(1H)-imidazolyl)propiophenone O-(2-aminoethyl)oxime difumarate] was 128 nM. The result for `Cc1nccn1CCCC(=NOCCN)c1ccccc1` [4-(2-Methyl-1-(1H)-imidazolyl)-1-phenyl-1-butanone O-(2-aminoethyl)oxime dihydrochloride] reads 656 nM.

Molecule `NCCON=C(CCCn1ccnc1)c1ccc(Cl)cc1` [1-(4-Chlorophenyl)-4-(1-(1H)-imidazolyl)-1-butanone O-(2-aminoethyl)oxime dihydrochloride] came in with an IC50 of 160 nM. The result for `NCCON=C(CCCn1ccnc1)c1ccc(C(F)(F)F)cc1` [4-(1-(1H)-Imidazolyl)-1-(4-trifluoromethylphenyl)-1-butanone O-(2-aminoethyl)oxime dihydrochloride] reads 80 nM.

The record behind these values is patent publication US5648367A, “Aminoalkyloximes” (Hoechst Marion Roussel, Inc., priority 1995, dated 1997).
